In patent publication US9585933B2, “Therapeutic use of peptide inhibitors of NADPH oxidase; aerosolization as a delivery mechanism” (University of Pittsburgh—Of the Commonwealth System of …, priority 2011, dated 2017):
Where no end group is shown, it is not given here.

Target: T1, Nox1 oxidase (COS-Nox1 lysate: hNox1, p22phox, NOXO1, NOXA1) (Homo sapiens, UniProt Q9Y5S8)
T1 construct: expressed in transfected cells; host or cells: COS-22 cells (COS 7 with p22phox), transiently cotransfected; cell lysate used
T1 sequence (Q9Y5S8 1-564): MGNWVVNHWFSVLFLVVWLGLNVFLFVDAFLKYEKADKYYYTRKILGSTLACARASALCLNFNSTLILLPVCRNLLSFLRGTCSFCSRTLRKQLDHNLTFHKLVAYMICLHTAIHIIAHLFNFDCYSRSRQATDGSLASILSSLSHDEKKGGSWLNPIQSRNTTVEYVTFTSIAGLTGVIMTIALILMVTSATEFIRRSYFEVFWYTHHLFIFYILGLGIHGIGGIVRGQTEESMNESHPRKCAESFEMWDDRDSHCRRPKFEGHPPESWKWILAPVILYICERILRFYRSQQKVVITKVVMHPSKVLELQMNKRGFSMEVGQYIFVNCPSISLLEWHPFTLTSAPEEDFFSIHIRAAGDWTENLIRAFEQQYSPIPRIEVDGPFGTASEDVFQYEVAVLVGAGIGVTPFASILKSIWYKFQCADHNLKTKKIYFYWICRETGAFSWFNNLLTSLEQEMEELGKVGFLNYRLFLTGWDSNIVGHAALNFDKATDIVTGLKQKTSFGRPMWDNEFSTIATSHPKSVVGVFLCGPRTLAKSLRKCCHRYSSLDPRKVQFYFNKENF
T1 sequence (P13498 2-195 partner limits assumed): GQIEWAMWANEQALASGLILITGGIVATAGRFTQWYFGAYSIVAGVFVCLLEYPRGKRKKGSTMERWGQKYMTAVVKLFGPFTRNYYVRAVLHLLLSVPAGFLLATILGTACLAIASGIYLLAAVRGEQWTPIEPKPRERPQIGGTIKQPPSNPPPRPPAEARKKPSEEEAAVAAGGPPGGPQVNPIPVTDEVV
Experiment: Cell-free SOD-inhibitable cytochrome c reduction assay, O2- production in COS-Nox1 lysates
Assay type: biochemical
Experimental: To test this hypothesis, the inhibitory activity of Nox2ds was assessed in cell-free assays using reconstituted systems expressing either Nox1, 2 or 4 oxidase. Nox 2 oxidase was recapitulated by stably transfecting COS 7 cells with Nox2, p22phox, p47phox, and p67phox (aka COS-Nox2). Nox1 oxidase was obtained by transfecting COS 7 cells with Nox1, p22phox, NOXO1 and NOXA1 (COS-Nox1), and Nox 4 oxidase was regenerated by transfection of COS 7 cells with Nox4 and p22phox. […] Our new data support selectivity of Nox2ds peptide in differentiating the contribution of Nox2 vs. Nox1 and Nox4 NADPH oxidase and its potential clinical use in ameliorating cardiopulmonary diseases.
Cell transfection was carried out using Lipofectamine LTX and Plus reagent (Invitrogen), according to the manufacturer's instructions. COS-22 cells were transiently cotransfected with pcDNA 3.1-hNox1, pCMVsport 6-hNOXA1, and pcDNA3.1-hNoxO1 (COS-Nox1/NOXO1/NOXA1 cells). Cells were used 24 h after transfection. […]
Superoxide (O2^−) production was measured in COS-Nox1 and COS-Nox2 lysates by determining the rate of O2^− dismutase (SOD) inhibitable cytochrome c reduction and by electron paramagnetic resonance (EPR). […]
O2^− production was initiated by the addition of NADPH and measured by the SOD-inhibitable cytochrome c reduction for 10 min.

Substance: CSTRVRRQL-NH2 [Nox2ds, CSTRVRRQL]
- inhibition of Nox1-derived O2- production (in words): did not inhibit
- rate of Nox1-derived O2- production, cytochrome c reduction (10 μM peptide, 0 μM control 0.97±0.14): 0.765±0.19 nmol O2^−/min/10^7 cell equivalents
